From patent US20150148551A1, “GENISTEIN FOR REDUCING LEVELS OF STORAGE COMPOUNDS IN THE TREATMENT AND/OR PREVENTION OF LYSOSOMAL STORAGE DISEASES (LSDS)” (3G THERAPEUTICS, INC., priority 2012, published 2015)

Legend:
CHST14 = assay: DNA microarray, CHST14 expression in fibroblasts exposed to genistein; assay type: cell-based, human
Experimental: (§1) The experiments were conducted to characterise the transcriptomic profile of human fibroblast cells exposed to genistein, and in particular to determine the expression of genes encoding lysosomal enzymes involved in metabolism (i.e. synthesis and degradation) of organic substances. The absence or deficiency of these enzymes' activity is responsible for occurrence of various lysosomal storage diseases (LSD) (including MPS). The tested hypothesis assumed that genistein influences the expression of many genes, among which there are genes coding for enzymes required in metabolism of compounds, which are pathologically stored in LSD. The results provide important information regarding genistein action on the molecular level within the range of gene expression modulation by this substance. The experiment was conducted in biological quintuplicates. Human dermal fibroblasts (HDFa) were exposed in vitro for 1, 24 or 48 hours to: 30, 60 or 100 μM of genistein; 0.05% DMSO (K1); or were untreated (control cells) (K2), and total RNA was isolated and analysed.
(§2) Fibroblast cells were grown in Dulbecco (DMEM) medium supplemented with 10% fetal bovine serum (FBS) with the addition of 1% antibiotics and anti-fungal agents at 37° C. in humidified atmosphere of 5% CO2, until the required confluency was obtained.
(§3) To determine the effect of tested compound on the transcriptom of the fibroblast cells, the growth medium was replaced with fresh medium, either non-supplemented (0.05% DMSO), or containing genistein (30, 60 or 100 μM, in 0.05% DMSO). The exposure was done for 1, 24 or 48 hours.
(§4) Total RNA was isolated from fibroblasts using High Pure RNA Isolation Kit according to the protocol and then it was quantitatively evaluated using Quant-It™ RiboGreen® Assay Kit.
(§5) Biotinylated cRNA was prepared using Ambion Total PrepAmp Kit for Illumina arrays.
(§6) Standard hybridization and quantitative image analysis procedures—Illumina hybridization protocol and Illumina scanning protocol, were used.
(§7) Processing of the results was done during data definition, including: background correction (using background subtraction method), normalization (using quantile normalization algorithm with Illumina GenomeStudio software package: gene expression module version 1.9.0) and summarization (using method, which sums the values of signal intensities from a set of probes).

HS3ST3A1 = assay: DNA microarray, HS3ST3A1 expression in fibroblasts exposed to genistein; assay type: cell-based, human
Experimental: as §1, §2, §3, §4, §5, §6, §7

GAPDH = assay: DNA microarray, GAPDH reference gene expression in fibroblasts exposed to genistein; assay type: cell-based, human
Experimental: as §1, §2, §3, §4, §5, §6, §7

[1] = test system: Human dermal fibroblasts (HDFa); assay: Transcriptomic profiling of fibroblasts with DNA microarrays, genes of synthesis and degradation; assay type: cell-based; settings: cells cultured in the presence vs absence of genistein
Experimental: as §1, with “analysed. […]” for “analysed.”
Total RNA was isolated from fibroblasts using High Pure RNA Isolation Kit according to the protocol and then it was quantitatively evaluated using Quant-It™ RiboGreen® Assay Kit. […]
Standard hybridization and quantitative image analysis procedures—Illumina hybridization protocol and Illumina scanning protocol, were used. […]

ST3GAL6 = assay: DNA microarray, ST3GAL6 expression in fibroblasts exposed to genistein; assay type: cell-based, human
Experimental: as §1, §2, §3, §4, §5, §6, §7

CTSA = assay: DNA microarray, CTSA expression in fibroblasts exposed to genistein; assay type: cell-based, human; settings: for CTSA fold change Average: 48 h vs DMSO
Experimental: as §1, §2, §3, §4, §5, §6, §7

XYLT1 = assay: DNA microarray, XYLT1 expression in fibroblasts exposed to genistein; assay type: cell-based, human
Experimental: as §1, §2, §3, §4, §5, §6, §7

O=c1c(-c2ccc(O)cc2)coc2cc(O)cc(O)c12 [genistein, 4′,5,7-trihydroxy-3-phenylchromen-4-one]
CHST14 fold change Average 24h30/24hK1 (CHST14; 30 μM, 24 h vs 0.05% DMSO): 0.8234 fold change | CHST14 fold change Average 48h30/48hK1 (CHST14; 30 μM, 48 h vs 0.05% DMSO): 0.9217 fold change | CHST14 fold change Average 1h60/1hK1 (CHST14; 60 μM, 1 h vs 0.05% DMSO): 0.851 fold change | CHST14 fold change Average 24h60/24hK1 (CHST14; 60 μM, 24 h vs 0.05% DMSO): 0.8184 fold change | CHST14 fold change Average 48h61/48hK1 (CHST14; 60 μM, 48 h vs 0.05% DMSO): 0.8526 fold change | CHST14 fold change Average 1h100/1hK1 (CHST14; 100 μM, 1 h vs 0.05% DMSO): 1.06 fold change | CHST14 fold change Average 24h100/24hK1 (CHST14; 100 μM, 24 h vs 0.05% DMSO): 0.8438 fold change | CHST14 fold change Average 48h100/48hK1 (CHST14; 100 μM, 48 h vs 0.05% DMSO): 0.6534 fold change | HS3ST3A1 fold change Average 1h30/1hK1 (HS3ST3A1; 30 μM, 1 h vs 0.05% DMSO): 1.027 fold change | HS3ST3A1 fold change Average 24h30/24hK1 (HS3ST3A1; 30 μM, 24 h vs 0.05% DMSO): 0.835 fold change | HS3ST3A1 fold change Average 48h30/48hK1 (HS3ST3A1; 30 μM, 48 h vs 0.05% DMSO): 0.7933 fold change | HS3ST3A1 fold change Average 1h60/1hK1 (HS3ST3A1; 60 μM, 1 h vs 0.05% DMSO): 0.9002 fold change | HS3ST3A1 fold change Average 24h60/24hK1 (HS3ST3A1; 60 μM, 24 h vs 0.05% DMSO): 0.5744 fold change | HS3ST3A1 fold change Average 48h61/48hK1 (HS3ST3A1; 60 μM, 48 h vs 0.05% DMSO): 0.6043 fold change | HS3ST3A1 fold change Average 1h100/1hK1 (HS3ST3A1; 100 μM, 1 h vs 0.05% DMSO): 1.047 fold change | HS3ST3A1 fold change Average 24h100/24hK1 (HS3ST3A1; 100 μM, 24 h vs 0.05% DMSO): 0.5452 fold change | HS3ST3A1 fold change Average 48h100/48hK1 (HS3ST3A1; 100 μM, 48 h vs 0.05% DMSO): 0.569 fold change | GAPDH fold change Average 1h30/1hK1 (GAPDH; 30 μM, 1 h vs 0.05% DMSO): 0.9592 fold change | GAPDH fold change Average 24h30/24hK1 (GAPDH; 30 μM, 24 h vs 0.05% DMSO): 0.93 fold change | GAPDH fold change Average 48h30/48hK1 (GAPDH; 30 μM, 48 h vs 0.05% DMSO): 0.9412 fold change | GAPDH fold change Average 1h60/1hK1 (GAPDH; 60 μM, 1 h vs 0.05% DMSO): 0.9817 fold change | GAPDH fold change Average 24h60/24hK1 (GAPDH; 60 μM, 24 h vs 0.05% DMSO): 0.8905 fold change | GAPDH fold change Average 48h60/48hK1 (GAPDH; 60 μM, 48 h vs 0.05% DMSO): 0.8088 fold change | GAPDH fold change Average 1h100/1hK1 (GAPDH; 100 μM, 1 h vs 0.05% DMSO): 0.9385 fold change | GAPDH fold change Average 24h100/24hK1 (GAPDH; 100 μM, 24 h vs 0.05% DMSO): 0.9556 fold change | GAPDH fold change Average 48h100/48hK1 (GAPDH; 100 μM, 48 h vs 0.05% DMSO): 0.8652 fold change | expression of genes of degradation [1]: increased | expression of genes of synthesis [1]: reduced | ST3GAL6 fold change Average 1h30/1hK1 (ST3GAL6; 30 μM, 1 h vs 0.05% DMSO): 1.234 fold change | ST3GAL6 fold change Average 24h30/24hK1 (ST3GAL6; 30 μM, 24 h vs 0.05% DMSO): 0.9878 fold change | ST3GAL6 fold change Average 48h30/48hK1 (ST3GAL6; 30 μM, 48 h vs 0.05% DMSO): 1.015 fold change | ST3GAL6 fold change Average 1h60/1hK1 (ST3GAL6; 60 μM, 1 h vs 0.05% DMSO): 1.072 fold change | ST3GAL6 fold change Average 1h100/1hK1 (ST3GAL6; 100 μM, 1 h vs 0.05% DMSO): 1.064 fold change | ST3GAL6 fold change Average 24h100/24hK1 (ST3GAL6; 100 μM, 24 h vs 0.05% DMSO): 0.7371 fold change | ST3GAL6 fold change Average 48h100/48hK1 (ST3GAL6; 100 μM, 48 h vs 0.05% DMSO): 0.7409 fold change | CTSA fold change Average 1h30/1hK1 (CTSA; 30 μM, 1 h vs 0.05% DMSO): 1.0199 fold change | CTSA fold change Average (CTSA; 30 μM): 1.3019 fold change | CTSA fold change Average 1h60/1hK1 (CTSA; 60 μM, 1 h vs 0.05% DMSO): 0.9816 fold change | CTSA fold change Average (CTSA; 60 μM): 1.637 fold change | CTSA fold change Average 1h100/1hK1 (CTSA; 100 μM, 1 h vs 0.05% DMSO): 0.9643 fold change | CTSA fold change Average (CTSA; 100 μM): 1.571 fold change | XYLT1 fold change Average 1h30/1hK1 (XYLT1; 30 μM, 1 h vs 0.05% DMSO): 1.058 fold change | XYLT1 fold change Average 24h30/24hK1 (XYLT1; 30 μM, 24 h vs 0.05% DMSO): 0.8611 fold change | XYLT1 fold change Average 48h30/48hK1 (XYLT1; 30 μM, 48 h vs 0.05% DMSO): 0.9745 fold change | XYLT1 fold change Average 24h60/24hK1 (XYLT1; 60 μM, 24 h vs 0.05% DMSO): 0.6217 fold change | XYLT1 fold change Average 1h100/1hK1 (XYLT1; 100 μM, 1 h vs 0.05% DMSO): 1 fold change | XYLT1 fold change Average 24h100/24hK1 (XYLT1; 100 μM, 24 h vs 0.05% DMSO): 0.6324 fold change | XYLT1 fold change Average 48h100/48hK1 (XYLT1; 100 μM, 48 h vs 0.05% DMSO): 0.921 fold change
